# Patent publication US9040563B2, “Dual inhibitors of farnesyltransferase and geranylgeranyltransferase I” (H. Lee Moffitt Cancer Center and Research Institute, Inc., priority 2010, dated 2015)
# Where two headings read alike, the source gives them in different places.
# How the values were obtained:
# K-Ras prenylation = experiment: Western blot of oncogenic K-Ras processing/prenylation; type: cell-based; details: NIH-3T3 overexpressing oncogenic mutant K-Ras (FIG. 14) and MDA-MB-231 (FIG. 15)
# Description: (§1) Testing has shown that the dual farnesyltransferase and geranygeranyltransferase-I inhibitors are effective on pancreatic tumors (90% of all cases), colonic tumors (30% of all cases), lung tumors (30% of all cases), and breast tumors (10% of all cases). NIH-3T3 cells that overexpress oncogenic mutant K-Ras, seen in FIG. 14, and MDA-MB-231 breast cancer cells with a naturally occurring K-Ras mutation, seen in FIG. 15, were treated with indicated concentrations of FGTI-2734, GGTI-2417 or FTI-2153. FGTI-2734 but not FTI-2153 or GGTI-2417 inhibited K-Ras prenylation. As expected, GGTI-2417 inhibited the processing of Rap1 but not HDJ-2 whereas FTI-2153 inhibited the processing of HDJ-2 but not Rap1.
# (§2) Mammalian target of rapamycin (mTOR) is a serine/threonine phosphatidylinositol 3-kinase-related kinase responsible for cell growth, proliferation, cell survival, protein synthesis, and transcription. Alteration of the mTOR pathway, either through activation of oncogenes or inactivation of tumor suppressors, disrupts a signaling equilibrium and causes malignant transformation. Studies have shown that phosphorylated S6 (pS6) is related to mTOR pathway alterations, and is useful in determining PI3K-based cancer therapies (Aziz, et al. Phosphatidylinositol-3-Kinase as a Therapeutic Target in Melanoma. Clin Cancer Res. 2009, 15; 3029-3036). […]
# farnesylation of H-Ras = experiment: Whole cell inhibition of H-Ras processing (farnesylation), immunoblot, oncogenic H-Ras-transformed NIH3T3 cells; type: cell-based, mouse
# Description: (§3) In vitro inhibition assays for FTase and GGTase-I were conducted by measuring the incorporation of [^3H]FPP and [^3H]GGPP into recombinant H-Ras-CVLS and H-Ras-CVLL, respectively, as previously described (Vogt, et al., Protein geranylgeranylation, not farnesylation, is required for the G1 to S phase transition in mouse fibroblasts. Oncogene, 1996, 13, 1991-1999). The in vivo inhibition of farnesylation and geranylgeranylation was determined based on the level of inhibition by synthetic compounds of H-Ras and Rap1A processing, respectively (Sun, et al., Both farnesyltransferase and geranylgeranyltransferase I inhibitors are required for inhibition of oncogenic K-Ras prenylation but each alone is sufficient to suppress human tumor growth in nude mouse xenografts. Oncogene, 1998, 16, 1467-1473). […] The separated proteins were transferred to nitrocellulose and immunoblotted using an anti-Ras antibody (Y13-258) or an anti-Rap1A antibody (SantaCruz Biotechnology, Santa Cruz, Calif.), respectively. Antibody reactions were visualized using either peroxidase-conjugated goat anti-rat IgG or goat anti-rabbit IgG (Jackson ImmunoResearch, West Grove, Pa.) and an enhanced chemiluminescence detection system.
# (§4) Briefly, in vitro inhibition assays for hFTase and GGTase-I were carried out by measuring the incorporation of [^3H]FPP and [^3H]GGPP into recombinant H-Ras-CVLS and H-Ras-CVLL, respectively, as described previously (Vogt et al., Protein geranylgeranylation, not farnesylation, is required for G1 to S phase transition in mouse fibroblasts. Oncogene. 1996; 13:1991-1999). Whole cell inhibition of farnesylation and geranylgeranylation were determined based on the level of inhibition by synthetic compounds of H-Ras and Rap1A processing, respectively (Sun, et al., Both farnesyltransferase and geranylgeranyltransferase I inhibitors are required for inhibition of oncogenic K-Ras prenylation but each alone is sufficient to suppress human tumor growth in nude mouse xenografts. Oncogene. 1998; 16:1467-1473).
# hFTase = hFTase (Homo sapiens, UniProt P49354+P49356); experiment: In vitro hFTase inhibition: incorporation of [3H]FPP into recombinant H-Ras-CVLS; type: biochemical
# HDJ-2 farnesylation = experiment: Western blot of HDJ-2 farnesylation/processing (gel shift) in treated cells; type: cell-based; details: MiaPaca, MDA-MB-468 and MDA-MB-231 human cancer cells; FIG. 13
# Description: (§5) The ability of FGTI-2734 to inhibit HDJ-2 farnesylation and Rap-1A geranylgeranylation in human cancer cells was determined next. To this end, the MiaPaca pancreatic cancer cell line and 2 breast cancer cell lines (MDA-MB-468 and MDA-MB-231) were treated with various concentration of the dual inhibitor FGTI-2734, the GGT-1 inhibitor GGTI-2418 or the FT inhibitor FTI-2153 and processed for Western blotting.
# as §1
# Mammalian target of rapamycin (mTOR) is a serine/threonine phosphatidylinositol 3-kinase-related kinase responsible for cell growth, proliferation, cell survival, protein synthesis, and transcription. […]
# HPNE = experiment: MTT proliferation/viability assay; type: cell-based, human; details: Homo sapiens, pancreas
# Description: (§6) To determine if FGTI-2734 is more efficacious than FT or GGT-1 inhibitors, 10 human cancer pancreatic cell lines, 2 human breast cancer cell lines, 2 human lung cancer cell lines and one human prostate cancer cell line were treated with these inhibitors and determined their effects on the proliferation of these cells by MTT assay.
# SW1990 = experiment: MTT proliferation/viability assay; type: cell-based, human
# Description: as §6
# GGTase-I = GGTase-I (Homo sapiens, UniProt P49354+P53609); experiment: In vitro GGTase-I inhibition: incorporation of [3H]GGPP into recombinant H-Ras-CVLL; type: biochemical; details: average of n = 3 unless stated, errors are standard deviations, read-out: GGTase-1 IC50
# [1] = system: Rap-1A geranylgeranylation; experiment: Western blot of Rap-1A geranylgeranylation/processing (antibody to un-geranylgeranylated Rap-1A) in treated cells; type: cell-based; details: MiaPaca, MDA-MB-468 and MDA-MB-231 human cancer cells; FIG. 13
# Description: as §5, §1
# as §2, with “3029-3036). Two breast adenocarcinoma and a pancreatic carcinoma cell line were treated with indicated concentrations of FGTI-2734, GGTI-2417 or FTI-2153. Protein extracts were run on a Western Blot using antibody against pS6 (ser240/244) (Cell Signaling Technology, Inc., Danvers, Mass.).” for “3029-3036).”
# p27Kip1 = experiment: Western blot of p27Kip1 protein levels; type: cell-based; details: human cancer cells; FIG. 17
# From the text: Mammalian target of rapamycin (mTOR) is a serine/threonine phosphatidylinositol 3-kinase-related kinase responsible for cell growth, proliferation, cell survival, protein synthesis, and transcription. Alteration of the mTOR pathway, either through activation of oncogenes or inactivation of tumor suppressors, disrupts a signaling equilibrium and causes malignant transformation. Studies have shown that phosphorylated S6 (pS6) is related to mTOR pathway alterations, and is useful in determining PI3K-based cancer therapies (Aziz, et al. Phosphatidylinositol-3-Kinase as a Therapeutic Target in Melanoma. Clin Cancer Res. 2009, 15; 3029-3036). Two breast adenocarcinoma and a pancreatic carcinoma cell line were treated with indicated concentrations of FGTI-2734, GGTI-2417 or FTI-2153. Protein extracts were run on a Western Blot using antibody against pS6 (ser240/244) (Cell Signaling Technology, Inc., Danvers, Mass.). […] Antibodies used were HDJ-2 (Lab Vision Corporation, Fremont, Calif.), Rapt (Santa Cruz Biotechnology, Santa Cruz, Calif.), K-Ras (EMD4 Biosciences (Calbiochem), Gibbstown, N.J.), P27 (BD Biosciences, San Jose, Calif.), Actin (Sigma-Aldrich, St. Louis, Mo.), Survivin (Santa Cruz Biotechnology, Santa Cruz, Calif.), and PARP (Roche, Indianapolis, Ind.).
# NCI-H460 = experiment: MTT proliferation/viability assay; type: cell-based; details: Homo sapiens, NCI-H460, lung
# Description: as §6
# MDA-MB-231 = experiment: MTT proliferation/viability assay; type: cell-based; details: Homo sapiens, MDA-MB-231, MDA-MB-231, breast
# Description: as §6
# [2] = system: geranylgeranylation of Rap1A; experiment: Whole cell inhibition of Rap1A processing (geranylgeranylation), immunoblot, oncogenic H-Ras-transformed NIH3T3 cells; type: cell-based, mouse; details: Mus musculus; whole cells, oncogenic H-Ras-transformed NIH3T3; n = 3 unless stated; read-out: Rap1A processing IC50
# Description: as §3, §4
compound,measurement,setting,value
"Cn1cncc1CN(CCN(CC1CCCCC1)S(=O)(=O)c1ccccn1)c1ccc(C#N)cc1F [21b, N-(2-((4-cyano-2-fluorophenyl)((1-methyl-1H-imidazol-5-yl)methyl)amino)ethyl)-N-(cyclohexylmethyl)pyridine-2-sulfonamide]",inhibition of K-Ras prenylation,K-Ras prenylation,inhibited
same,IC50,"farnesylation of H-Ras; Mus musculus, NIH3T3, whole cells, oncogenic H-Ras-transformed NIH3T3, n = 3 unless stated, read-out: H-Ras processing IC50",88.7 ± 25.8 nM
same,IC50,"farnesylation of H-Ras; whole cells, NIH 3T3, values in nM, listed as FGTI-2734, read-out: H-Ras processing IC50 (whole cell)",89 ± 26 nM
same,selectivity (ratio of GGTase-I to FTase IC50s),hFTase; GGTase-I IC50 / hFTase IC50,2.1
same,IC50,"hFTase; in vitro, average of three independent assays (n = 3) unless stated, errors are standard deviations",0.25 ± 0.19 µM
same,inhibition of HDJ-2 farnesylation,HDJ-2 farnesylation,inhibited
same,IC50,HPNE,13.5 ± 1.72 µM
same,IC50,"SW1990; Homo sapiens, SW1990, SW1990, pancreas",26.3 µM
same,IC50,"SW1990; SW1990, pancreas, listed as FGTI-2734",24.2 µM
same,IC50,GGTase-I,0.52 ± 0.09 µM
same,inhibition of Rap-1A geranylgeranylation,[1],inhibited
same,p27Kip1 protein levels,p27Kip1,induces
same,IC50,NCI-H460,7.19 ± 1.18 µM
same,IC50,MDA-MB-231,12.2 ± 0.97 µM
same,IC50,[2],2.7 ± 1.5 µM
